Publication PMC4389225, “Triaminopyrimidine is a fast-killing and long-acting antimalarial clinical candidate” (Nature Communications, 2015)
In brackets after ≈: the same amount, converted by molar mass.

Tests used:
[1] = test system: asexual blood stage of Pf; test: Pf asexual blood stage potency (Pf IC50); assay type: cell-based, Plasmodium falciparum; conditions: Plasmodium falciparum
From the text: The TAPs series emerged from a high-throughput screen (HTS) of 500,000 compounds from the AstraZeneca corporate library against the asexual blood stage of Pf using a high-content image-based approach. The procedure for synthesis of compounds 1-6, 10, 11 using a scheme similar to Fig. 1 is provided in Supplementary Note 1. The initial hit provided multiple diversification points for a robust lead optimization campaign. […] Compounds with 2-pyridyl modification at the 2-amino position of pyrimidine core improved potency and solubility at the cost of potent activity against hERG and acetylcholine esterase (AChE; compounds 3-6; Table 1). […] The observed hERG and AChE selectivity improvement with 7 could be attributed to the polar nature of the pyrazole group and its role in reducing the pKa of the core pyrimidine ring. […] To assess the potential for cross-resistance, representative TAPs were screened against a panel of clinical isolates and in vitro-generated mutant strains displaying varying mechanisms of resistance to antimalarial agents currently in use and under development, respectively, (Supplementary Tables 1–3).

hERG = molecular target: T1, hERG (Homo sapiens, UniProt Q12809); test: electrophysiology-based hERG assay using IonWorks HT (CHO cells); assay type: cell-based; conditions: hERG IC50
T1 construct: expressed in transfected cells; host or cells: CHO cells
Method: hERG IC50 was determined in an electrophysiology-based hERG assay using IonWorks HT (CHO cells) as described earlier.

T1 sequence (Q12809 whole entry): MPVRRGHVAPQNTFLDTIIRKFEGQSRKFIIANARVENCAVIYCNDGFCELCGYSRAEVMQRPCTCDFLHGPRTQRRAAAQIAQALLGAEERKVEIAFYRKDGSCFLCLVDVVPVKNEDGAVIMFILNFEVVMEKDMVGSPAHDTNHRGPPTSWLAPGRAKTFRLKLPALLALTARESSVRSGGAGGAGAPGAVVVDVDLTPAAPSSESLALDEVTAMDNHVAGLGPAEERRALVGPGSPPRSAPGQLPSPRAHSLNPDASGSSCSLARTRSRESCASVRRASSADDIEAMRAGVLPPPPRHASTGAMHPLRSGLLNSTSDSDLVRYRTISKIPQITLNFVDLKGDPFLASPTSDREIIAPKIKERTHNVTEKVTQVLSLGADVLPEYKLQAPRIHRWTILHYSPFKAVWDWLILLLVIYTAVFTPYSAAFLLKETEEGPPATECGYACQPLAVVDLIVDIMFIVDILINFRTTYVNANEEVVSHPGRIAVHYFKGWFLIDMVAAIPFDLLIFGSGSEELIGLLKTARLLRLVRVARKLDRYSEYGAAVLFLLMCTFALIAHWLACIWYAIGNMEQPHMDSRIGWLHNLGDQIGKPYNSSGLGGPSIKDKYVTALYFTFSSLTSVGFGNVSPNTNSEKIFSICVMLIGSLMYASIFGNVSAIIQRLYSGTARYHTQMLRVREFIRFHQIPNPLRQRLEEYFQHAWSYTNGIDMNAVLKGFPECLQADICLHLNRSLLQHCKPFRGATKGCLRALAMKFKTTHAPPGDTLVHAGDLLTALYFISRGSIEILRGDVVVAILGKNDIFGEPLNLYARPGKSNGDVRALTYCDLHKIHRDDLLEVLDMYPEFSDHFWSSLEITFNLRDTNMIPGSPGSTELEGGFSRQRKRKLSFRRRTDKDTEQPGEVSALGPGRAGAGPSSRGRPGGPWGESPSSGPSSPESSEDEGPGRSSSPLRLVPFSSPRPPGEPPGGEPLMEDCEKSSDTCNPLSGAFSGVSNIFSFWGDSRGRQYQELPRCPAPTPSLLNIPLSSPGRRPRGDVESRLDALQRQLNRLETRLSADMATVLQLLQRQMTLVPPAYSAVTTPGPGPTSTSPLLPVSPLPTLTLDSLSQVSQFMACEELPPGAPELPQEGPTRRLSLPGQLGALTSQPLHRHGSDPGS

Compound: CCc1ccc(Nc2ncc(N3CCN(C)CC3)c(N3CCCC3)n2)cc1 [compound 1]
- IC50 [1]: 150 nM
- IC50 (hERG): 3700 nM
- solubility (Solubility): 10 µM (≈ 3.67 µg/mL)
